Results taken from patent US9333234B2, “Combination of somatostatin-analogs with 11beta-hydroxylase inhibitors” (Novartis AG, priority 2012, dated 2016).
Where two headings read alike, the source gives them in different places. Numbered stars: 1 amine (or outer) side, 2 acyl side, 3 side chain; on linkers, the order of the positions; unused ones are H or OH. Square brackets hold non-standard residues; d marks the D form. Side chains are listed from the residue outwards. Peptide text beside a SMILES is read from it. * marks the point of attachment. Ethylenediamine = C(CN[*:2])N[*:1]; Hyp = O=C(O)[C@@H]1C[C@@H](O)CN1; Phg = N[C@H](C(=O)O)c1ccccc1; CO = O=C([*:1])[*:2]; Bn = c1ccc(C*)cc1

How the values were obtained:
[1] = tested on: patients with Cushing's disease
Method: Dose escalation was planned every 2 weeks to 5, 10, 20 and 50 mg bid until UFC normalized, in which case the dose was maintained until day 70, when treatment stopped. Dose reduction for tolerability was permitted. UFC was assessed on the penultimate day of each 2-week period. Patients were monitored until day 84. The primary endpoint was UFC≦ULN or a ≧50% decrease from baseline at day 70 using the mean of 3 UFC samples collected during the week before day 70.

[2] = Solubility profile, excess solids equilibrated in each solvent; format: physicochemical
Method: Excess solids were equilibrated in each solvent for over 24 hours at 25° C.±0.1. Concentration in supernatant was measured by gravimetry for organic solvents and by HPLC from aqueous solvents and propylene glycol.

Wistar Hannover rats = format: in vivo; details: for Serum corticosterone, Change from Control (%): Female rats; for Effects on serum corticosterone (PD marker), in words: compared to control
From the text: Another group of rats (10/sex) received daily doses of Ultrapure water, by oral gavage, and the Acetate buffered solution pH 4.5 for injection USP, by subcutaneous injection, and served as controls.
Study activities included clinical examinations, involving twice daily exams for mortality and signs of ill health or reaction to treatment, daily pre-dose and 1-hour post dose cage-side observations, weekly detailed examination, body weights and food consumption, two ophthalmic examinations (pretreatment and week 13), clinical pathology (hematology, coagulation and clinical biochemistry, urinalysis) and immunology at the end of dosing (Adrenocorticotropic hormone, Corticosterone, Growth hormone, Insulin-like growth factor and urinalysis for Corticosterone). […] Post mortem evaluation included macroscopic observations, organ weight assessments (absolute and relative to body) and microscopic examinations.

[3] = Solubility and stability in water at 0.1% target concentration, 50° C.; format: physicochemical; details: for stability / behaviour in water: 2 days at 50° C.
[4] = Hygroscopicity, sorption/desorption isotherms (VTI 100 humidity microbalance); format: physicochemical; details: 25° C.
Method: Sorption/desorption isotherms were measured using the VTI 100 humidity microbalance (VTI Corporation, Hialeah, Fla., USA). Measurements were carried out at 25° C. Samples were dried under N2 flow at 25° C.

[5] = tested on: Cushing's disease patients; details: Colao et al. N Engl J Med 2012; 366:32-42; cited from earlier work
[6] = of the 9 patients who completed the active treatment phase
[7] = patients with Cushing's disease
[8] = Female rats (n = 10), dose 20/— (COMPOUND A 20 mg/kg/day alone)
[9] = Male rats (n = 10), dose 20/— (COMPOUND A 20 mg/kg/day alone)
[10] = Female rats (n = 10), dose —/0.3 (SOM230 0.3 mg/kg/day alone)
[11] = Male rats (n = 10), dose —/0.3 (SOM230 0.3 mg/kg/day alone)

For `N#Cc1ccc([C@H]2CCc3cncn32)c(F)c1` [Compound A, (R)-4-(6,7-Dihydro-5H-pyrrolo[1,2-c]imidazol-5-yl)-3-fluoro-benzonitrile], the “ACTH level doubled, share of patients” value ([1]; 10-week trial) was “half of the patients”, the “effect on urinary free cortisol (UFC)” value ([1]; 10-week trial) was “successfully reduced urinary free cortisol (UFC) in all patients” and the “adverse event fatigue (patients)” value ([1]; 12 patients enrolled) was 7/12. The “adverse event headache (patients)” value ([1]; 12 patients enrolled) was 3/12, the “adverse event nausea (patients)” value ([1]; 12 patients enrolled) was 4/12 and the “patients with ACTH levels >2× baseline” value ([1]; 12 patients enrolled) was “Five”. The “patients with study drug-related hypokalemia (K+<3.5 mmol/L)” value ([1]; 12 patients enrolled) was “Four”, the “mean SBP decrease from baseline” value ([1]; day 70) was 13.1 mmHg and the “patients with UFC >ULN after treatment discontinuation” value ([1]; measurements at day 84) was 6 patients. For the same molecule, the “patients achieving primary endpoint (UFC≦ULN or ≧50% decrease from baseline at day 70)” value [1, 6] was 9 patients, the “patients with normal UFC levels on day 70” value [1, 6] was 8 patients and the “patients with normal UFC levels on at least one assessment during the study” value ([1]; oral, 2-50 mg bid dose escalation) was 11 of 11. For the same molecule, the efficacy conclusion [1, 7] was “demonstrated efficacy”, the “tolerability / safety profile” value [1, 7] was “satisfactory safety profile” and the “tolerability / safety profile” value ([1]; patients with Cushing's disease, listed as COMPOUND A) was “generally well tolerated”. For the same molecule, the Solubility ([2]; Ethanol, over 24 hours at 25° C.) was over 50 mg/mL, the Solubility ([2]; Ethyl Acetate, over 24 hours at 25° C.) was over 50 mg/mL and the Solubility ([2]; organic solvent or mixture, thermodynamic from solid, Acetone, over 24 hours at 25° C., read-out: Solubility) was over 50 mg/mL. For the same molecule, the Solubility ([2]; simulated gastric fluid, thermodynamic from solid, pH 1, over 24 hours at 25° C., read-out: Solubility) was over 50 mg/mL, the “Absolute adrenal weights” value (Wistar Hannover rats; [8]) was 0.07002 g and the “Mean serum corticosterone level” value (Wistar Hannover rats; [8]) was 166.76. For the same molecule, the “Serum corticosterone, Change from Control (%)” value (Wistar Hannover rats; dose 20/— (COMPOUND A 20 mg/kg/day alone)) was −36%, the “Absolute adrenal weights” value (Wistar Hannover rats; [9]) was 0.04969 g and the “Mean serum corticosterone level” value (Wistar Hannover rats; [9]) was 221.83. For the same molecule, the adrenalcortical hypertrophy (Wistar Hannover rats; female rats) was “produced adrenalcortical hypertrophy”, the “Effects on serum corticosterone (PD marker), in words” value (Wistar Hannover rats; rats) was “decreases in serum corticosterone in females only” and the “Effects on adrenal gland organ weights, in words” value (Wistar Hannover rats; rats, more pronounced in females) was “increased adrenal gland organ weights”. The “solubility in water at the 0.1% target concentration” value [3] was “largely insoluble” and the “stability / behaviour in water” value [3] was “converted from a free flowing solid into an oily material”.
Work on `N#Cc1ccc([C@H]2CCc3cncn32)c(F)c1.O=P(O)(O)O` [Phosphate salt, Phosphate Salt of 4-(R)-6,7-dihydro-5H-pyrrolo[1,2-c]imidazol-5-yl-3-fluoro-benzonitrile (Form A)] yielded a Solubility ([2]; Water, over 24 hours at 25° C.) of over 50 mg/mL, a Solubility ([2]; pH 1, over 24 hours at 25° C.) of over 50 mg/mL and a Solubility ([2]; pH 6.8, over 24 hours at 25° C.) of over 50 mg/mL. For the same molecule, the “hygroscopicity, water uptake” value ([4]; 5% RH) was 0%, the “hygroscopicity, water uptake” value ([4]; 75% relative humidity) was 0.9% and the “solubility in water at the 0.1% target concentration” value [3] was “soluble”. For the same molecule, the “stability / behaviour in water” value [3] was “stable”.
With `NCCCC[C@@H]1NC(=O)[C@@H](Cc2c[nH]c3ccccc23)NC(=O)[C@H](c2ccccc2)NC(=O)[C@@H]2C[C@@H](OC(=O)NCCN)CN2C(=O)[C@H](Cc2ccccc2)NC(=O)[C@H](Cc2ccc(OCc3ccccc3)cc2)NC1=O` [SOM230, cyclo[{4-(NH2—C2H4—NH—CO—O-)Pro}-Phg-DTrp-Lys-Tyr(4-Bzl)-Phe], reference compound] (cyclo([Hyp]([CO-Ethylenediamine])[Phg][dW]KY(Bn)F)) the “Absolute adrenal weights” value (Wistar Hannover rats; [10]) was 0.04585 g, the “Mean serum corticosterone level” value (Wistar Hannover rats; [10]) was 190.56 and the “Relative adrenal weight (% of body weight)” value (Wistar Hannover rats; [10]) was 0.02432 % of body weight. For the same molecule, the “Serum corticosterone, Change from Control (%)” value (Wistar Hannover rats; dose —/0.3 (SOM230 0.3 mg/kg/day alone)) was −27%, the “Absolute adrenal weights” value (Wistar Hannover rats; [11]) was 0.03615 g and the “Mean serum corticosterone level” value (Wistar Hannover rats; [11]) was 233.68. For the same molecule, the “Relative adrenal weight (% of body weight)” value (Wistar Hannover rats; [11]) was 0.01326 % of body weight, the “Effects on serum corticosterone (PD marker), in words” value (Wistar Hannover rats; rats) was “decreases in serum corticosterone in females only” and the “cortisol levels in Cushing's disease patients” value [5] was “significant decrease of cortisol levels”.
